# Experimental data from publication PMC3899232, “Peptide Binding Properties of the Three PDZ Domains of Bazooka (Drosophila Par-3)” (PLoS ONE, 2014).
# Several values for one entry are separate records, joined by “and”; a condition that tells them apart may be missing. Equal values may be shown once. Ends that are not written are not given here. Peptide text beside a SMILES is read from it. * marks the point of attachment. Biotin = O=C1N[C@H]2[C@H](CS[C@H]2CCCCC(=O)*)N1
# Assays:
# [1] = target: GST-PDZ1-3 (Baz PDZ domains in tandem) (Drosophila melanogaster, UniProt Q0KHR3); test: SPR binding of peptides to immobilized tandem GST-PDZ1-3 (Biacore 3000); details: for KD values of GST-PDZ1-3 compared with single GST-PDZ domains (in words): SPR, HBS-EP pH 7.4, tandem versus single PDZ domain alone; for Kd: tandem GST-PDZ1-3 immobilized on CM5 at 30 µg/ml in 10 mM sodium acetate pH 5.5, HBS-EP running buffer pH 7.4
# Excerpt: With the binding strengths of individual PDZ domain-peptide interactions quantified, we next investigated whether the natural tandem arrangement of the PDZ domains affects their peptide binding. For these experiments, we purfied GST-PDZ1-3 and confirmed its stability by SDS-PAGE (Fig. 2B). To test the binding properties of the individual PDZ domains within the tandem, we separately probed GST-PDZ1-3 with Peptides 1, 2 and 3. […] To assess binding quantitatively, we determined the KD values of GST-PDZ1-3 binding to each peptide. […] Thus, the peptide binding pockets of each PDZ domain appear to be unaffected by tandem organization of the PDZ domains.
# (§1) Binding experiments were conducted with a Biacore 3000 biosensor (GE Healthcare, USA), as described. Specifically, the GST fusion proteins of each PDZ domain alone or of the PDZ domains in tandem were immobilized on CM5 chips (GE Healthcare) at a concentration of 30 µg/ml in 10 mM sodium acetate (pH 5.5) for PDZ1, PDZ3 and PDZ1-3, and in 10 mM HEPES (pH 7.0) for PDZ2. The peptides for SPR were biotinylated but otherwise identical to those indentified by phage display (Peptide 1, Biotin-SAPGGGLRIVNGLWIF; Peptide 2, Biotin-SAPGGGDREWWV; Peptide 3, Biotin-SAPGGGRVLWFDLGIF; synthesized by Sheldon Biotechnology Centre, McGill University, Canada). All peptides were solubilized in HBS-EP running buffer (10 mM Hepes pH 7.4, 150 mM NaCl, 3 mM EDTA, 0.005% Surfactant P20) and were flowed over the immobilized proteins in this buffer. For Peptide 1 and Peptide 3, KD values were determined with a 1∶1 binding model with drifting baseline. For Peptide 2, KD values were determined with a steady state model.
# GST-PDZ1 (Baz PDZ1) = GST-PDZ1 (Baz PDZ1) (Drosophila melanogaster, UniProt Q0KHR3); test: SPR binding of peptides to immobilized GST-PDZ1 (Biacore 3000); details: for Kd: GST-PDZ1 immobilized on CM5 at 30 µg/ml in 10 mM sodium acetate pH 5.5, HBS-EP running buffer pH 7.4, 1:1 binding model with drifting baseline
# Protocol: (§2) To test the binding of purified peptides to the PDZ domain GST fusion proteins, we acquired one peptide for each PDZ domain corresponding to single peptides identified by phage display (Fig. 3A). We separately immobilized PDZ domain GST fusion proteins on solid supports and analyzed peptide binding by surface plasmon resonance (SPR).
# as §1
# GST-PDZ2 (Baz PDZ2) = GST-PDZ2 (Baz PDZ2) (Drosophila melanogaster, UniProt Q0KHR3); test: SPR binding of peptides to immobilized GST-PDZ2 (Biacore 3000); details: for Kd: GST-PDZ2 immobilized on CM5 at 30 µg/ml in 10 mM HEPES pH 7.0, HBS-EP running buffer pH 7.4, steady state model
# Protocol: as §2, §1
# GST-PDZ3 (Baz PDZ3) = GST-PDZ3 (Baz PDZ3) (Drosophila melanogaster, UniProt Q0KHR3); test: SPR binding of peptides to immobilized GST-PDZ3 (Biacore 3000); details: for Kd: GST-PDZ3 immobilized on CM5 at 30 µg/ml in 10 mM sodium acetate pH 5.5, HBS-EP running buffer pH 7.4, 1:1 binding model with drifting baseline
# Protocol: as §2, §1
# [2] = target: GST-Baz PDZ1-3 (fusion protein containing all three PDZ domains and their normal linker regions) (Drosophila); test: SPR; Biacore 3000; GST fusion protein immobilised on CM5 chip (30 µg/ml in 10 mM sodium acetate pH 5.5); Peptide 1 or Peptide 3 flowed in HBS-EP (10 mM Hepes pH 7.4, 150 mM NaCl, 3 mM EDTA, 0.005% Surfactant P20); 1:1 binding model with drifting baseline
# [3] = target: GST-PDZ1 (GST fusion protein of Baz PDZ1) (Drosophila); test: as above
# [4] = target: GST-PDZ3 (GST fusion protein of Baz PDZ3) (Drosophila); test: as above
# [5] = target: GST-Baz PDZ1-3 (fusion protein containing all three PDZ domains and their normal linker regions) (Drosophila); test: SPR; Biacore 3000; GST fusion protein immobilised on CM5 chip (30 µg/ml; PDZ2 in 10 mM HEPES pH 7.0, PDZ1-3 in 10 mM sodium acetate pH 5.5); Peptide 2 flowed in HBS-EP (10 mM Hepes pH 7.4, 150 mM NaCl, 3 mM EDTA, 0.005% Surfactant P20); steady state model
# [6] = target: GST-PDZ2 (GST fusion protein of Baz PDZ2) (Drosophila); test: as above
# [7] = replicate 1 (separately purified proteins, separately prepared peptides), Peptides 1 and 3: 1:1 binding model with drifting baseline
# [8] = replicate 2 (separately purified proteins, separately prepared peptides), Peptides 1 and 3: 1:1 binding model with drifting baseline
# [9] = replicate 1 (separately purified proteins, separately prepared peptides)
# [10] = replicate 2 (separately purified proteins, separately prepared peptides)
# Chain of GST-PDZ1 (Baz PDZ1) (Q0KHR3 1-1520): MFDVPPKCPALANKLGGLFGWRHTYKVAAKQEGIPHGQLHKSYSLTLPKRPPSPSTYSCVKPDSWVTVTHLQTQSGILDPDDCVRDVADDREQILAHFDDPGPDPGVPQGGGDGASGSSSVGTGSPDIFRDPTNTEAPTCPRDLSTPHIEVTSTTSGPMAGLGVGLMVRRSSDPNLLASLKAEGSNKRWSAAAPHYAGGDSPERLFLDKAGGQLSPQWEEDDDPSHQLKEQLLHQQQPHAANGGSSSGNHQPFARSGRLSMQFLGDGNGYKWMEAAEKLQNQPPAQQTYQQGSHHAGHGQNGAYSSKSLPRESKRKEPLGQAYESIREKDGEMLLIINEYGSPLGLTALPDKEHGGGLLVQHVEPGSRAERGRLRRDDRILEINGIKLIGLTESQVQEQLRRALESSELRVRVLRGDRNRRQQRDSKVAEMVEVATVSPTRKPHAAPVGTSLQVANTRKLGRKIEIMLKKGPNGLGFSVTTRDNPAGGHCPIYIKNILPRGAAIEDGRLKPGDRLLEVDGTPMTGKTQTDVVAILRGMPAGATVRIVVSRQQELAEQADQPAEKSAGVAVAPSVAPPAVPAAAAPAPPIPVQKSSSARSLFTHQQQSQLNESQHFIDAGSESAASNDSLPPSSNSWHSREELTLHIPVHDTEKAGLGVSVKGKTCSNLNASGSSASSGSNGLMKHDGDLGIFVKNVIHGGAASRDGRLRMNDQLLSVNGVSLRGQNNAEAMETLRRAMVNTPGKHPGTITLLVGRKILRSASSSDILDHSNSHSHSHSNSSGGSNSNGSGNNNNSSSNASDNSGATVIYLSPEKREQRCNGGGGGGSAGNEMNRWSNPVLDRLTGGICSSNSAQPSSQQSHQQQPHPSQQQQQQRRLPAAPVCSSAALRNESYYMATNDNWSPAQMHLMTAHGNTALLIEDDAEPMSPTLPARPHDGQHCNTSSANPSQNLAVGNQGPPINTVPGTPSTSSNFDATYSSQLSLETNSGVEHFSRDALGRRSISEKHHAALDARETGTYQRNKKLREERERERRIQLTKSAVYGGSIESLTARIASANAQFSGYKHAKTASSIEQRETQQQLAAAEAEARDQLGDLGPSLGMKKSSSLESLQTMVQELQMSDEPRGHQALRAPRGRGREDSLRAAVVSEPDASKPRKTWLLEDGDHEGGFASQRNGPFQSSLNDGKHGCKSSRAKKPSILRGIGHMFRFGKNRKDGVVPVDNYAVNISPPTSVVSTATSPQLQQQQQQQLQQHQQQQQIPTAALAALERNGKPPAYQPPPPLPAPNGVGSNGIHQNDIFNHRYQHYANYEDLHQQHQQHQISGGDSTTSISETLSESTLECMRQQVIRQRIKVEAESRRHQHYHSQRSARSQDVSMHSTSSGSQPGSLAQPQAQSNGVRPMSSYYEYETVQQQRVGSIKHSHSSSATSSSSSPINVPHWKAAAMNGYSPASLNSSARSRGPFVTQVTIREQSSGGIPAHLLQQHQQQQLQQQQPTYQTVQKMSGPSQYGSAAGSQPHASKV
# Chain of GST-PDZ2 (Baz PDZ2) (Q0KHR3 1-1520): as above
# Chain of GST-PDZ1-3 (Baz PDZ domains in tandem) (Q0KHR3 1-1520): as above
# Chain of GST-PDZ3 (Baz PDZ3) (Q0KHR3 1-1520): as above
molecule,measurement,setting,value
"CC[C@H](C)[C@H](NC(=O)[C@H](Cc1c[nH]c2ccccc12)NC(=O)[C@H](CC(C)C)NC(=O)CNC(=O)[C@H](CC(N)=O)NC(=O)[C@@H](NC(=O)[C@@H](NC(=O)[C@H](CCCNC(=N)N)NC(=O)[C@H](CC(C)C)NC(=O)CNC(=O)CNC(=O)CNC(=O)[C@@H]1CCCN1C(=O)[C@H](C)NC(=O)[C@H](CO)NC(=O)CCCC[C@@H]1SC[C@@H]2NC(=O)N[C@@H]21)[C@@H](C)CC)C(C)C)C(=O)N[C@@H](Cc1ccccc1)C(=O)O [Peptide 1, Biotin-SAPGGGLRIVNGLWIF] (Biotin-SAPGGGLRIVNGLWIF-OH)",KD values of GST-PDZ1-3 compared with single GST-PDZ domains (in words),[1],very close to those of each GST-PDZ domain alone
same,Kd,[1]; [7],263 nM
same,Kd,[1]; [8],245 nM
same,KD values (in words),"GST-PDZ1 (Baz PDZ1); SPR, HBS-EP pH 7.4, GST-PDZ1, summary of Table 1",in the nM range
same,Kd,GST-PDZ1 (Baz PDZ1); [9],164 nM
same,Kd,GST-PDZ1 (Baz PDZ1); [10],186 nM
"CC(C)[C@H](NC(=O)[C@H](Cc1c[nH]c2ccccc12)NC(=O)[C@H](Cc1c[nH]c2ccccc12)NC(=O)[C@H](CCC(=O)O)NC(=O)[C@H](CCCNC(=N)N)NC(=O)[C@H](CC(=O)O)NC(=O)CNC(=O)CNC(=O)CNC(=O)[C@@H]1CCCN1C(=O)[C@H](C)NC(=O)[C@H](CO)NC(=O)CCCC[C@@H]1SC[C@@H]2NC(=O)N[C@@H]21)C(=O)O [Peptide 2, Biotin-SAPGGGDREWWV] (Biotin-SAPGGGDREWWV-OH)",KD values of GST-PDZ1-3 compared with single GST-PDZ domains (in words),[1],very close to those of each GST-PDZ domain alone
same,Kd,"[1]; replicate 1 (separately purified proteins, separately prepared peptides), Peptide 2: steady state model",9130 nM
same,Kd,"[1]; replicate 2 (separately purified proteins, separately prepared peptides), Peptide 2: steady state model",9980 nM
same,KD values (in words),"GST-PDZ2 (Baz PDZ2); SPR, HBS-EP pH 7.4, GST-PDZ2, summary of Table 1",in the µM range
same,Kd,GST-PDZ2 (Baz PDZ2); [9],17700 nM
same,Kd,GST-PDZ2 (Baz PDZ2); [10],13000 nM
"CC[C@H](C)[C@H](NC(=O)CNC(=O)[C@H](CC(C)C)NC(=O)[C@H](CC(=O)O)NC(=O)[C@H](Cc1ccccc1)NC(=O)[C@H](Cc1c[nH]c2ccccc12)NC(=O)[C@H](CC(C)C)NC(=O)[C@@H](NC(=O)[C@H](CCCNC(=N)N)NC(=O)CNC(=O)CNC(=O)CNC(=O)[C@@H]1CCCN1C(=O)[C@H](C)NC(=O)[C@H](CO)NC(=O)CCCC[C@@H]1SC[C@@H]2NC(=O)N[C@@H]21)C(C)C)C(=O)N[C@@H](Cc1ccccc1)C(=O)O [Peptide 3, Biotin-SAPGGGRVLWFDLGIF] (Biotin-SAPGGGRVLWFDLGIF-OH)",KD values of GST-PDZ1-3 compared with single GST-PDZ domains (in words),[1],very close to those of each GST-PDZ domain alone
same,Kd,[1]; [7],49.4 nM
same,Kd,[1]; [8],32.6 nM
same,KD values (in words),"GST-PDZ3 (Baz PDZ3); SPR, HBS-EP pH 7.4, GST-PDZ3, summary of Table 1",in the nM range
same,Kd,GST-PDZ3 (Baz PDZ3); [9],45.9 nM
same,Kd,GST-PDZ3 (Baz PDZ3); [10],25.2 nM
Biotin-SAPGGGLRIVNGLWIF [Peptide 1 (Biotin-…)],Kd,[2],263 nM and 245 nM
same,Kd,[3],164 nM and 186 nM
Biotin-SAPGGGRVLWFDLGIF [Peptide 3 (Biotin-…)],Kd,[2],49.4 nM and 32.6 nM
same,Kd,[4],25.2 nM and 45.9 nM
Biotin-SAPGGGDREWWV [Peptide 2 (Biotin-…)],Kd,[5],9130 nM and 9980 nM
same,Kd,[6],17700 nM and 13000 nM
